Data from PubChem BioAssay (NCI).
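Tested at 5 concentrations; 48 h exposure; 96-well plates; endpoints linearly interpolated, else capped at highest concentration. GI50 marks 50% less growth. At the TGI there is no net growth.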

Key:
Test in all cases: NCI tumour cell line growth inhibition, 48 h
M14 melanoma = test system: M14 melanoma
HT29 colon = test system: HT29 colon
SR leukemia = test system: SR leukemia
HOP-62 NSCLC = test system: HOP-62 NSCLC
A549 NSCLC = test system: A549 NSCLC
COLO 205 colon = test system: COLO 205 colon
SF-268 CNS = test system: SF-268 CNS
DU-145 prostate = test system: DU-145 prostate
UO-31 renal = test system: UO-31 renal
HOP-92 NSCLC = test system: HOP-92 NSCLC

SMILES	TGI (M14 melanoma) [µM]	TGI (HT29 colon) [µM]	TGI (SR leukemia) [µM]	TGI (HOP-62 NSCLC) [µM]	TGI (A549 NSCLC) [µM]	TGI (COLO 205 colon) [µM]	TGI (SF-268 CNS) [µM]	GI50 (M14 melanoma) [µM]	GI50 (DU-145 prostate) [µM]	TGI (DU-145 prostate) [µM]	GI50 (UO-31 renal) [µM]	TGI (UO-31 renal) [µM]	GI50 (HOP-92 NSCLC) [µM]	TGI (HOP-92 NSCLC) [µM]	GI50 (HT29 colon) [µM]	GI50 (HOP-62 NSCLC) [µM]	GI50 (A549 NSCLC) [µM]	GI50 (COLO 205 colon) [µM]	GI50 (SF-268 CNS) [µM]
COc1cccc2c(SCC(=O)Nc3ccccc3-c3ccccc3NC(=O)CSc3c4ccccc4nc4c(OC)cccc34)c3ccccc3nc12	> 100	> 100	> 100	> 100	> 100	> 100	> 100												
COc1ccc2c(CCCc3ccc(Cl)cc3Cl)c3[n+](cc2c1OC)CCc1cc2c(cc1-3)OCO2	1.88							0.485	0.639	1.96	1.58	3.08	0.228	1.14					
COC(=O)C12C34C=CC5(CCC6(C=CC1(CC3)O6)C52C(=O)OC)O4 (stereo not given)		> 100	> 100	> 100	> 100	> 100	> 100							> 100					
NC(=O)C(=O)C1C(=O)N(c2ccccc2)N=C1N (stereo not given)	> 100	> 100	> 100	> 100	> 100	> 100	> 100					> 100		> 100					
CCn1cc(C(=O)N/N=C/c2cccs2)c(=O)c2cc(F)c(N3CCNC(C)C3)c(F)c21 (stereo not given)		3.12		3.17	3.37	3.52	3.44		1.67	3.03	1.52	2.96	1.09	2.38	1.67	1.59	1.8	1.78	1.73
COC(=O)c1ccc(C(=O)OC)c2nc3cc(Cl)ccc3nc12	> 100	> 100		> 100	> 100	> 100	> 100					> 100		> 100					
C[C@]12CC(C=O)C(=O)C(O)=C1CC[C@@H]1C2CC[C@@]2(C)C1CC[C@]2(C)O (stereo not given in full)	35	23.5		> 100	> 100	38.3	66.1					51.1		33.4					
CN(C)N=Nc1cccc(C(N)=O)c1	> 100	> 100	> 100		> 100	> 100	> 100					> 100		> 100					
CN(C)C(=S)/N=c1\ssc(=S)n1Cc1ccco1	> 100	> 24.4	> 100	> 63.1	> 100	> 100	> 100					> 100		> 100					
Cc1ccc(C)c(NC(=O)C(=O)C2C(=O)N(c3ccccc3)N=C2N)c1 (stereo not given)	> 100	> 100		> 100	> 100		> 100					> 100		> 100					
CCCCCCCCC(C)CCCCCCCCC(=O)OCC(COP(=O)([O-])OCC[N+](C)(C)C)OC(=O)CCCCCCCCC(C)CCCCCCCC (stereo not given)	> 100	> 100	> 100	> 100	> 100	> 100	> 100					> 100		> 100					
COC(=O)C(=O)C(C(C)=O)C(=O)NCc1ccccc1 (stereo not given)	> 100	> 100	> 100	> 100	> 100	> 100	> 100					> 100		> 100					
